How the values were obtained:
normal mice = experiment: Enterocinesia in normal mice (carbon powder movement in small intestine); assay type: in vivo; details: 13.3 mL/kg intragastric; for Movement distance of carbon powder: carbon powder 20 to 30 min later, killed 15 to 20 min after; for Movement distance of carbon powder/full length of small intestine: normal mice
Method: Male ICR mice, 8 weeks old and 20±2 g in body weight, were purchased from Beijing HFK Bioscience Co., Ltd.
Solutions of Compositions 1 to 7 were used in the experiment.
A suspension of carbon powder of 0.1 g/mL was also used. In particular, 1 g of carbon powder was added to and then suspended evenly in 10 mL of normal saline.
After the mice were fed normally for 3 days, they were given no food but water for 18-24 h. By the body weight, the mice were randomly divided into 11 groups, i.e., a blank control group, administration groups 1 to 7 and negative control groups 1 to 3. The mice in administration groups 1 to 7 were respectively intragastrically administered with the solutions of Compositions 1 to 7 at a dose of 13.3 mL/kg body weight while the mice in the blank control group were intragastrically given sterile water for medical use at a dose of 13.3 mL/kg body weight. The mice in negative control groups 1 to 3 were respectively intragastrically administered with the solution of trehalose (0.15 g/mL), the solution of validamycin (0.3 mg/mL) and the solution of algal polysaccharide (0.15 g/ml) at a dose of 13.3 mL/kg body weight. At 20 to 30 min post administration, all mice were intragastrically given the suspension of carbon powder at a dose of 0.2 mL/10 g body weight. At 15 to 20 min post the administration of the carbon powder suspension, the mice were killed by cervical vertebrae dislocation and then were quickly dissected to separate the small intestines. The movement distance of the carbon powder (the distance measured from the carbon powder at the forefront to the end of the duodenum closer to heart) and the full length of the small intestine were measured.

[1] = test system: patients with type-II diabetes; experiment: Long-term experiment for treatment in human diabetics; assay type: in vivo; details: for Blood glucose level after administration: 200 mL oral
Method: Six patients with type-II diabetes were fasted overnight and then measured for fasting blood glucose level. Then they were orally administered with 200 mL of the solution of Composition 1, or 200 mL of solution of trehalose (0.15 g/mL), or 200 mL of the solution of validamycin (0.3 mg/mL), or 200 mL of distilled water, as stated in Table 3.4. The blood glucose level in every patient was tested before administration and one day, one week, two weeks and one month post administration.

SMILES | Movement distance of carbon powder (normal mice) | Movement distance of carbon powder/full length of small intestine (normal mice) | Blood glucose level after administration ([1]; 1 month, individual type-II diabetics) | Blood glucose level after administration ([1]; 1 week, individual type-II diabetics) | Blood glucose level after administration ([1]; 2 weeks, individual type-II diabetics) | Blood glucose level after administration ([1]; 1 day, individual type-II diabetics) | Blood glucose level before administration ([1]; fasting baseline, individual type-II diabetics, long-term) | effect on blood glucose level in patients with type-II diabetes, long-term ([1]; up to one month)
OC[C@H]1O[C@H](O[C@H]2O[C@H](CO)[C@@H](O)[C@H](O)[C@H]2O)[C@H](O)[C@@H](O)[C@@H]1O [trehalose] | 33.6 ± 3.40 cm | 71.9 ± 8.20% | – | – | – | – | – | –
OCC1=C[C@H](N[C@H]2C[C@H](CO)[C@@H](O[C@@H]3O[C@H](CO)[C@@H](O)[C@H](O)[C@H]3O)[C@H](O)[C@H]2O)[C@H](O)[C@@H](O)[C@@H]1O [validamycin] | 29.3 ± 2.34 cm | 66.3 ± 6.57% | 8.9 mmol/L | 9.0 mmol/L | 8.7 mmol/L | 8.7 mmol/L | 8.8 mmol/L | had no influence on blood glucose level
